# Results: patent US9387246B2, “Treatment methods for rheumatoid arthritis” (priority 2013, dated 2016)
# B1: Certolizumab pegol (antibody, chains of the INN, looked up, V domains shown)
# VH: EVQLVESGGGLVQPGGSLRLSCAASGYVFTDYGMNWVRQAPGKGLEWMGWINTYIGEPIYADSVKGRFTFSLDTSKSTAYLQMNSLRAEDTAVYYCARGYRSYAMDYWGQGTLVTVSS
# VL: DIQMTQSPSSLSASVGDRVTITCKASQNVGTNVAWYQQKPGKAPKALIYSASFLYSGVPYRFSGSGSGTDFTLTISSLQPEDFATYYCQQYNIYPLTFGQGTKVEIK
# modifications: Fab' PEG
# B2: TNF (CIMZIA) (antibody, chains of the INN, looked up, V domains shown)
# VH: B1 VH
# VL: B1 VL
# modifications: Fab' PEG
# Assays:
# [1] = tested on: Rheumatoid arthritis patients; assay: Treatment outcome (effectiveness, clinical course) of treatment methods (Example 2); format: in vivo, human
# Procedure: (§1) The patients were treated with the selected treatment methods for at least five months and the post-treatment biomarker levels and VECTRA DA Score were determined by VECTRA® DA test along with CRP level and ESR. The change is VECTRA DA Score, CRP level and ESR was determined to determine the change in disease activity and effectiveness of the selected treatment method.
# [2] = tested on: Rheumatoid arthritis patients; assay: Change in VECTRA DA Score after treatment, longer duration (Example 3); format: in vivo, human
# Procedure: Sixteen rheumatoid arthritis patients were selected for treatment by treatment methods that were selected using the algorithm disclosed herein. Some patients were the same as the patients discussed under Example 2. Example 3, however, tracks patients' responses to treatment for a longer duration and uses VECTRA DA Score to determine effectiveness of the treatment.
# VECTRA® DA test was conducted for each patient to determine serum levels of the all the biomarkers and VECTRA DA Score in each patient before treatment. The collection of patients closely resembles the random patient population available nationwide as shown by a comparison of the distribution of VECTRA DA Scores in FIG. 6, as noted under Example 2.
# The patients were treated with the selected treatment methods and the post-treatment biomarker levels and VECTRA DA Score were determined by VECTRA® DA test. The change is VECTRA DA Score was determined to determine the change in disease activity and effectiveness of the selected treatment method.
# The treatment method (one method or a combination of methods) was determined to be effective when the post-treatment disease activity was lower than the pre-treatment disease activity in the patient: when VECTRA DA Score was lower than the pre-treatment VECTRA DA Score. Specifically, the treatment method was determined to be effective when the post-treatment disease activity was at least 20% lower than the pre-treatment disease activity, or when the VECTRA DA Score is decreased to a lower disease activity level after the treatment (i.e., from high to moderate, or high to low, or moderate to low).
# [3] = tested on: Rheumatoid arthritis patients; format: in vivo, human; conditions: for Treatment effectiveness (reason for discontinuation / earlier trial): patient 16, January 2014
# Text: A treatment method administered to a patient may be a combination of one or more treatment methods.
# [4] = tested on: Rheumatoid arthritis patients; assay: VECTRA DA test: serum levels of biomarkers, % elevation over control (InFoRM study); format: in vivo, human
# Text: (§2) VECTRA® DA test is a multi-biomarker disease activity (MBDA) blood test sold by Crescendo Bioscience. The test provides a quantitative assessment of rheumatoid arthritis disease activity in patients by using twelve protein biomarkers—Vascular Cell Adhesion Molecule 1 (VCAM-1), Epidermal Growth Factor (EGF), Vascular Endothelial Growth Factor A (VEGF-A), Interleukin-6 (IL-6), Tumor Necrosis Factor Receptor Type 1 (TNFR1), Matrix Metalloproteinase-1 (MMP-1), Matrix Metalloproteinase-3 (MMP-3), YKL-40, Leptin, Resistin, Serum Amyloid A (SAA), and C-Reactive Protein (CRP). The twelve biomarkers in VECTRA® DA test are relevant to key aspects of the pathophysiology of RA. Li et al., Curr. Med. Res. & Opin. 29(1): 85-92 (2013). The test measures the concentrations of the biomarkers and provides the concentrations and percentile (RA percentile) value for each biomarker.
# The VECTRA DA MBDA test uses Meso Scale Discovery (MSD, Gaithersburg, Md., USA) sandwich immunoassay electrochemiluminescent technology to measure biomarker levels. Eastman et al., J. of Pharmaceutical and Biomedical Analysis 70: 415-424 (2012). In the immunoassay, capture antibodies are spotted on carbon electrodes in a planar array and detection antibodies are labeled with an electrochemiluminescent ruthenium reporter. Id. Upon electrical stimulation, light is produced from reporter molecules bound to the electrode to determine biomarker concentration.
# VCAM-1 = conditions: literature 1990-2012, ACR abstracts 2006-2013; cited from earlier work
# IL-6 = conditions: literature 1990-2012, ACR abstracts 2006-2013; cited from earlier work
# TNFR1 = tested on: TNFR1; parameters: key: Y: biomarkers that are known to be positively affected by a treatment method (i.e., biomarkers that are known to have a favorable response to a treatment method); N: biomarkers that are not known to be positively affected by a treatment method (i.e., biomarkers that are known to have an unfavorable response to a treatment method); biomarkers that are known to be positively affected by a ORENCIA, the brand name of Atabacept; conditions: literature 1990-2012, ACR abstracts 2006-2013; cited from earlier work
# MMP-1 = conditions: literature 1990-2012, ACR abstracts 2006-2013; cited from earlier work
# MMP-3 = conditions: literature 1990-2012, ACR abstracts 2006-2013; cited from earlier work
# Resistin = conditions: literature 1990-2012, ACR abstracts 2006-2013; cited from earlier work
# SAA = conditions: literature 1990-2012, ACR abstracts 2006-2013; cited from earlier work
# VEGF-A = conditions: literature 1990-2012, ACR abstracts 2006-2013; cited from earlier work
# YKL-40 = conditions: literature 1990-2012, ACR abstracts 2006-2013; cited from earlier work
# Leptin = conditions: literature; Leptin usable as biomarker only in patients with 15% or less body fat; cited from earlier work
# CRP = conditions: literature 1990-2012, ACR abstracts 2006-2013; cited from earlier work
# [5] = tested on: Rheumatoid arthritis patients; assay: Change in VECTRA DA Score after treatment (Example 2); format: in vivo, human; conditions: Patient 10; treatment December 2012-June 2013; score May 2013
# Text: as §2, with “biomarker. […]” for “biomarker.”
# as §1
# [6] = Patient 6, outcome not reflected by change in any of the three disease markers, earlier treatments not algorithm-selected
# [7] = Patient 10, MTX (November 2011) and ORENCIA (August-December 2012) not algorithm-selected, HUMIRA December 2012-June 2013, based on VECTRA DA Score
molecule,measurement,setting,value
"Cc1oncc1C(=O)Nc1ccc(C(F)(F)F)cc1 [ARA, Leflunomide]",Treatment Outcome,[1]; [6],(after failing
same,Arthritis activity class of VECTRA DA Score,"[2]; Patient 6, March 2012",high (a VECTRA DA Score of >44 reflects high disease activity)
same,VECTRA DA Score,"[2]; Patient 6, March 2012",74
same,Patient could tolerate the drug in the past,[3]; in vivo,Patient could not
same,Toxicity for which the treatment was discontinued,[3]; in vivo,to bone marrow
same,WBC count relative to normal (reason for discontinuation),[3]; in vivo,due to below
same,CRP elevated level,"[4]; Patient 6, March 2012",93%
same,IL-6 elevated level,"[4]; Patient 6, March 2012",98%
same,Leptin elevated level,"[4]; Patient 6, March 2012",90%
same,MMP-1 elevated level,"[4]; Patient 6, March 2012",40%
same,MMP-3 elevated level,"[4]; Patient 6, March 2012",91%
same,Resistin elevated level,"[4]; Patient 6, March 2012",63%
same,SAA elevated level,"[4]; Patient 6, March 2012",97%
same,TNF-R1 elevated level,"[4]; Patient 6, March 2012",73%
same,VCAM-1 elevated level,"[4]; Patient 6, March 2012",85%
same,VEGF-A elevated level,"[4]; Patient 6, March 2012",84%
same,YKL-40 elevated level,"[4]; Patient 6, March 2012",41%
same,VCAM-1 positively affected by treatment method,VCAM-1,Y
same,IL-6 positively affected by treatment method,IL-6,Y
same,TNFR1 positively affected by treatment method,TNFR1,Y
same,MMP-1 positively affected by treatment method,MMP-1,Y
same,MMP-3 positively affected by treatment method,MMP-3,Y
same,Resistin positively affected by treatment method,Resistin,N
same,SAA positively affected by treatment method,SAA,Y
"Cn1cnc([N+](=O)[O-])c1Sc1ncnc2nc[nH]c12 [Azathioprine (AZA), Azathioprine]",Treatment Outcome,[1]; [6],(after failing
same,Treatment Outcome,"[1]; Patient 16, AZA from March 2012, triple therapy with CIMZIA from May 2012, based on VECTRA DA score",Not effective
same,Treatment effectiveness (reason for discontinuation / earlier trial),[3],to inefficacy
"CN(Cc1cnc2nc(N)nc(N)c2n1)c1ccc(C(=O)N[C@@H](CCC(=O)O)C(=O)O)cc1 [MTX, Methotrexate]",Treatment Outcome,"[1]; Patient 5, MTX alone from March 2012 not algorithm-selected, MTX and CIMZIA October 2012-June 2013, based on Sedimentation Rate and CRP Level",Not effective
same,Treatment Outcome,"[1]; Patient 8, MTX not algorithm-selected, ORENCIA December 2012-June 2013, based on VECTRA DA score",Not effective
same,Treatment Outcome,"[1]; Patient 9, ACTEMRA from May 2012 not algorithm-selected, MTX added October 2012, based on ESR and CRP level","Effective,"
same,Treatment Outcome,[1]; [7],Not effective
same,Arthritis activity class of VECTRA DA Score,"[2]; Patient 5, August 2012",high (a VECTRA DA Score of >44 reflects high disease activity)
same,VECTRA DA Score increased by,"[2]; Patient 5, August 2012 since March 2012 (5 months treatment only)",by 7 since
same,Arthritis activity class of VECTRA DA Score,"[2]; Patient 10, April 2012",(moderate) (a VECTRA DA Score of >29 and ≦44 reflects moderate disease activity)
same,VECTRA DA Score,"[2]; Patient 10, April 2012, Methotrexate 10 mg/week",Score: 33
same,Adverse event for which dose was reduced to 10 mg/week,"[3]; human, in vivo","hair loss, April 2014"
same,Treatment effectiveness (reason for discontinuation / earlier trial),[3],without success
same,CRP elevated level,"[4]; Patient 5, August 2012",67%
same,IL-6 elevated level,"[4]; Patient 5, August 2012",79%
same,Leptin elevated level,"[4]; Patient 5, August 2012",97%
same,MMP-1 elevated level,"[4]; Patient 5, August 2012",79%
same,MMP-3 elevated level,"[4]; Patient 5, August 2012",95%
same,Resistin elevated level,"[4]; Patient 5, August 2012",82%
same,SAA elevated level,"[4]; Patient 5, August 2012",92%
same,TNF-R1 elevated level,"[4]; Patient 5, August 2012",79%
same,VCAM-1 elevated level,"[4]; Patient 5, August 2012",97%
same,VEGF-A elevated level,"[4]; Patient 5, August 2012",48%
same,YKL-40 elevated level,"[4]; Patient 5, August 2012",94%
same,SAA elevated level,"[4]; Patient 10, April 2012",65%
same,VEGF-A elevated level,"[4]; Patient 10, April 2012",59%
same,YKL-40 elevated level,"[4]; Patient 10, April 2012",72%
same,VCAM-1 positively affected by treatment method,VCAM-1,N
same,VEGF-A positively affected by treatment method,VEGF-A,Y
same,IL-6 positively affected by treatment method,IL-6,Y
same,TNFR1 positively affected by treatment method,TNFR1,N
same,MMP-1 positively affected by treatment method,MMP-1,N
same,MMP-3 positively affected by treatment method,MMP-3,Y
same,YKL-40 positively affected by treatment method,YKL-40,N
same,Leptin positively affected by treatment method,Leptin,N
same,Resistin positively affected by treatment method,Resistin,N
same,SAA positively affected by treatment method,SAA,Y
same,CRP positively affected by treatment method,CRP,Y
"CCN(CCO)CCCC(C)Nc1ccnc2cc(Cl)ccc12 (centres unmarked) [P, Hydroxychloroquine]",VCAM-1 positively affected by treatment method,VCAM-1,N
same,VEGF-A positively affected by treatment method,VEGF-A,N
same,IL-6 positively affected by treatment method,IL-6,Y
same,TNFR1 positively affected by treatment method,TNFR1,N
same,MMP-1 positively affected by treatment method,MMP-1,N
same,MMP-3 positively affected by treatment method,MMP-3,N
same,YKL-40 positively affected by treatment method,YKL-40,N
same,Resistin positively affected by treatment method,Resistin,N
same,SAA positively affected by treatment method,SAA,Y
same,CRP positively affected by treatment method,CRP,Y
"O=C(O)c1cc(/N=N/c2ccc(S(=O)(=O)Nc3ccccn3)cc2)ccc1O [S, Sulfasalazine]",VEGF-A positively affected by treatment method,VEGF-A,Y
same,IL-6 positively affected by treatment method,IL-6,Y
same,TNFR1 positively affected by treatment method,TNFR1,Y
same,MMP-3 positively affected by treatment method,MMP-3,Y
same,YKL-40 positively affected by treatment method,YKL-40,N
same,Leptin positively affected by treatment method,Leptin,N
same,Resistin positively affected by treatment method,Resistin,N
same,SAA positively affected by treatment method,SAA,Y
same,CRP positively affected by treatment method,CRP,Y
"C[C@@H]1CCN(C(=O)CC#N)C[C@@H]1N(C)c1ncnc2[nH]ccc12 [TOFAC, Tofacitinib]","Tapering of oral steroid, Prednisone","[3]; patient 16, XELJANZ 5 mg twice a day added March 2014",XELJANZ allowed
same,IL-6 positively affected by treatment method,IL-6,Y
same,MMP-1 positively affected by treatment method,MMP-1,Y
same,MMP-3 positively affected by treatment method,MMP-3,Y
Adalimumab [HUMIRA (TNF)],VECTRA DA Score - Decreased by,[5],Decreased by 22
same,Treatment Outcome,[1]; [7],"Effective,"
Rituximab,VCAM-1 positively affected by treatment method,VCAM-1,N
same,IL-6 positively affected by treatment method,IL-6,Y
same,MMP-1 positively affected by treatment method,MMP-1,N
same,MMP-3 positively affected by treatment method,MMP-3,N
same,YKL-40 positively affected by treatment method,YKL-40,N
same,Leptin positively affected by treatment method,Leptin,N
same,Resistin positively affected by treatment method,Resistin,N
same,SAA positively affected by treatment method,SAA,N
same,CRP positively affected by treatment method,CRP,Y
B1,Treatment Outcome,[1]; [6],(after failing
B2,Treatment effectiveness (reason for discontinuation / earlier trial),[3],without success
